Drawing on US20220030867A1 (priority 2018, published 2022), this text covers inhibition of growth, melting point and pest or weed control for 14 molecules.

For one data set, the system named is Sclerotinia sclerotiorum. Description: Sclerotinia sclerotiorum / liquid culture (cottony rot). Format: cell-based. The following applies: growth inhibition photometrically 3-4 days after application, vs untreated control. On the procedure: Sclerotinia sclerotiorum/Liquid Culture (Cottony Rot)
Mycelia fragments of a newly grown liquid culture of the fungus are directly mixed into nutrient broth (Vogels broth). After placing a (DMSO) solution of test compound into a microtiter plate (96-well format) the nutrient broth containing the fungal material is added. The test plates are incubated at 24° C. and the inhibition of growth is determined photometrically 3-4 days after application.

Data set [1] concerns Glomerella lagenarium (Colletotrichum lagenarium). Description: Glomerella lagenarium (Colletotrichum lagenarium) / liquid culture (anthracnose). The class given is cell-based. As to conditions: Colletotrichum orbiculare, growth inhibition photometrically 3-4 days after application, vs untreated control. On the procedure:
Conidia of the fungus from cryogenic storage are directly mixed into nutrient broth (PDB potato dextrose broth). After placing a (DMSO) solution of test compound into a microtiter plate (96-well format), the nutrient broth containing the fungal spores is added. The test plates are incubated at 24° C. and the inhibition of growth is measured photometrically 3-4 days after application.

The subject of data set [2] is Monographella nivalis (Microdochium nivale). Description: Monographella nivalis (Microdochium nivale) / liquid culture (foot rot cereals). Format: cell-based. The following applies: growth inhibition photometrically 4-5 days after application, vs untreated control. On the procedure:
Monographella nivalis (Microdochium nivale)/Liquid Culture (Foot Rot Cereals)
Conidia of the fungus from cryogenic storage are directly mixed into nutrient broth (PDB potato dextrose broth). After placing a (DMSO) solution of test compound into a microtiter plate (96-well format), the nutrient broth containing the fungal spores is added. The test plates are incubated at 24° C. and the inhibition of growth is determined photometrically 4-5 days after application.

Data set [3] relates to Magnaporthe grisea (Pyricularia oryzae). Description: microbe, parasite or virus in culture. Format: cell-based. As to conditions: read-out: control of Magnaporthe grisea.
Data set [4] deals with Fusarium culmorum. Description: microbe, parasite or virus in culture. Format: cell-based. The following applies: read-out: control of Fusarium culmorum.
In data set [5] the test system is Fusarium culmorum. Description: whole plant or invertebrate. As to conditions: in Triticum aestivum, read-out: control of Fusarium culmorum. Format: in vivo, Fusarium culmorum on wheat spikelets cv. Monsun.
Data set [6] deals with Magnaporthe grisea (Pyricularia oryzae). Description: whole plant or invertebrate. The class given is in vivo, Magnaporthe grisea on rice leaf segments cv. Ballila. As to conditions: foliar, read-out: control of Magnaporthe grisea.
The subject of data set [7] is Botryotinia fuckeliana (Botrytis cinerea). Description: Botryotinia fuckeliana (Botrytis cinerea) / liquid culture (gray mould). The class given is cell-based. The following applies: growth inhibition photometrically 3-4 days after application, vs untreated control. On the procedure: Botryotinia fuckeliana (Botrytis cinerea)/Liquid Culture (Gray Mould)
Conidia of the fungus from cryogenic storage are directly mixed into nutrient broth (Vogels broth). After placing a (DMSO) solution of test compound into a microtiter plate (96-well format), the nutrient broth containing the fungal spores is added. The test plates are incubated at 24° C. and the inhibition of growth is determined photometrically 3-4 days after application.

`Cc1nc2c(F)cccc2cc1NC(=O)C(Cc1ccccc1)CC1(C)CC1` (centres unmarked) [Compound E-89, 2-benzyl-N-(8-fluoro-2-methyl-3-quinolyl)-3-(1-methylcyclopropyl)propanamide] returned a melting point of 162 to 163 °C. The inhibition of growth at 20 ppm in the data set with Sclerotinia sclerotiorum is not below 80%. In data set [1], this molecule showed an inhibition of growth at 200 ppm not below 80%. In addition, the inhibition of growth at 200 ppm in data set [2] is not below 80%. In addition, in data set [3], the inhibition of growth at 200 ppm was not below 80%. Further, in the data set with Fusarium culmorum [4], the inhibition of growth at 200 ppm is not below 80%. Moreover, the pest or weed control at 200 ppm in the data set on Fusarium culmorum [5] was not below 80%. Besides, the pest or weed control at 200 ppm in data set [6] was not below 80%. In data set [7], this molecule displayed an inhibition of growth at 200 ppm not below 80%.
Regarding `Cc1nc2c(F)cccc2cc1NC(=O)C(Cc1ccccc1)CC(C)(C)C` (centres unmarked) [Compound E-97, 2-benzyl-N-(8-fluoro-2-methyl-3-quinolyl)-4,4-dimethyl-pentanamide], the inhibition of growth at 200 ppm (in data set [1]; in data set [2]; in data set [3]; in the data set on Fusarium culmorum [4]; in [7]) was not below 80% each time. Moreover, the pest or weed control at 200 ppm (with Fusarium culmorum [5]; in data set [6]) was not below 80% each time.
Consider `Cc1c(NC(=O)C(C)(Cc2ccccc2)CC2(C)CC2)cnc2c(F)cccc12` (centres unmarked) [Compound E-100, 2-benzyl-N-(8-fluoro-4-methyl-3-quinolyl)-2-methyl-3-(1-methylcyclopropyl)propanamide], for which the melting point lay within 163 to 164 °C. This molecule also registered an inhibition of growth at 20 ppm in the data set on Sclerotinia sclerotiorum not below 80%. The molecule further had an inhibition of growth at 200 ppm in data set [1] not below 80%. Besides, in [3], the inhibition of growth at 200 ppm is not below 80%. In addition, the inhibition of growth at 200 ppm in the data set with Fusarium culmorum [4] is not below 80%. Further, the pest or weed control at 200 ppm in the data set with Fusarium culmorum [5] is not below 80%. Moreover, the pest or weed control at 200 ppm in [6] was not below 80%. For the same molecule, in data set [7], the inhibition of growth at 200 ppm is not below 80%.
The molecule `C=C(Cl)C[C@H](Cc1ccccc1)C(=O)Nc1cnc2c(F)cccc2c1C` [Compound F-28, (2S)-2-benzyl-4-chloro-N-(8-fluoro-4-methyl-3-quinolyl)pent-4-enamide] came in with an inhibition of growth at 20 ppm in the data set on Sclerotinia sclerotiorum not below 80%. Also, the inhibition of growth at 200 ppm (in data set [1]; in [2]; in data set [3]; with Fusarium culmorum [4]; in [7]) was not below 80% throughout.
Regarding `Cc1nc2c(F)cccc2cc1NC(=O)[C@](C)(Cc1cccc(F)c1)CC(C)C` [Compound F-29, (2S)-N-(8-fluoro-2-methyl-3-quinolyl)-2-[(3-fluorophenyl)methyl]-2,4-dimethyl-pentanamide], in the data set on Sclerotinia sclerotiorum, the inhibition of growth at 20 ppm is not below 80%. The inhibition of growth at 200 ppm in data set [1], in data set [2], in data set [3] and in [7] was not below 80% throughout. Moreover, the pest or weed control at 200 ppm in data set [6] is not below 80%.
`Cc1nc2c(F)cccc2cc1NC(=O)[C@@](C)(Cc1cccc(F)c1)CC(C)C` [Compound F-30, (2R)-N-(8-fluoro-2-methyl-3-quinolyl)-2-[(3-fluorophenyl)methyl]-2,4-dimethyl-pentanamide] gave an inhibition of growth at 20 ppm in the data set with Sclerotinia sclerotiorum not below 80%. The inhibition of growth at 200 ppm in data set [1], in data set [2], in [3] and in data set [7] was not below 80% each time. In addition, the pest or weed control at 200 ppm in data set [6] is not below 80%.
`Cc1nc2c(F)cccc2cc1NC(=O)[C@](C)(Cc1cccc(F)c1)CC(F)(F)F` [Compound F-32, (2R)-4,4,4-trifluoro-N-(8-fluoro-2-methyl-3-quinolyl)-2-[(3-fluorophenyl)methyl]-2-methyl-butanamide] showed an inhibition of growth at 20 ppm in the data set with Sclerotinia sclerotiorum not below 80%. In addition, the inhibition of growth at 200 ppm (in data set [1]; in data set [3]; in the data set on Fusarium culmorum [4]; in data set [7]) was not below 80% in each case. The pest or weed control at 200 ppm (with Fusarium culmorum [5]; in data set [6]) was not below 80% each time.
`Cc1nc2c(F)cccc2cc1NC(=O)[C@@H](Cc1ccccc1)CC(C)(C)C` [Compound F-34, (2R)-2-benzyl-N-(8-fluoro-2-methyl-3-quinolyl)-4,4-dimethyl-pentanamide] came in with an inhibition of growth at 20 ppm in the data set on Sclerotinia sclerotiorum not below 80%. Moreover, the inhibition of growth at 200 ppm (in data set [1]; in data set [2]; in data set [3]; with Fusarium culmorum [4]; in data set [7]) was not below 80% each time. Besides, the pest or weed control at 200 ppm (in the data set with Fusarium culmorum [5]; in data set [6]) was not below 80% in each case.
Take `Cc1c(NC(=O)[C@H](Cc2ccccc2)CC(C)(C)C)cnc2c(F)cccc12` [Compound F-35, (2S)-2-benzyl-N-(8-fluoro-4-methyl-3-quinolyl)-4,4-dimethyl-pentanamide]: the inhibition of growth at 200 ppm (in data set [1]; in [2]; in [3]; with Fusarium culmorum [4]; in data set [7]) was not below 80% each time. For the same molecule, the pest or weed control at 200 ppm (in the data set on Fusarium culmorum [5]; in data set [6]) was not below 80% in each case.
As to `Cc1c(NC(=O)[C@@H](Cc2ccccc2)CC(C)(C)C)cnc2c(F)cccc12` [Compound F-36, (2R)-2-benzyl-N-(8-fluoro-4-methyl-3-quinolyl)-4,4-dimethyl-pentanamide], the inhibition of growth at 20 ppm in the data set on Sclerotinia sclerotiorum was not below 80%. Besides, the inhibition of growth at 200 ppm (in data set [1]; in data set [2]; in data set [3]; in the data set with Fusarium culmorum [4]; in data set [7]) was not below 80% each time. For the same molecule, the pest or weed control at 200 ppm (in the data set on Fusarium culmorum [5]; in [6]) was not below 80% throughout.
In the data set on Sclerotinia sclerotiorum, `Cc1nc2c(F)cccc2cc1NC(=O)[C@@H](Cc1ccccc1)CC1(C)CC1` [Compound F-38, (2R)-2-benzyl-N-(8-fluoro-2-methyl-3-quinolyl)-3-(1-methylcyclopropyl)propanamide] showed an inhibition of growth at 20 ppm not below 80%. Also, the inhibition of growth at 200 ppm (in data set [1]; in data set [2]; in [3]; in the data set on Fusarium culmorum [4]; in data set [7]) was not below 80% each time. Also, the pest or weed control at 200 ppm in the data set with Fusarium culmorum [5] was not below 80%.
Regarding `C=C(Cl)C[C@](C)(Cc1ccccc1)C(=O)Nc1cnc2c(F)cccc2c1C` [Compound F-41, (2S)-2-benzyl-4-chloro-N-(8-fluoro-4-methyl-3-quinolyl)-2-methyl-pent-4-enamide], the inhibition of growth at 20 ppm with Sclerotinia sclerotiorum was not below 80%. In addition, the inhibition of growth at 200 ppm in data set [1], in data set [2] and in data set [7] was not below 80% throughout. Also, the pest or weed control at 200 ppm (in the data set with Fusarium culmorum [5]; in data set [6]) was not below 80% throughout.
As for `C=C(Cl)C[C@@](C)(Cc1ccccc1)C(=O)Nc1cnc2c(F)cccc2c1C` [Compound F-42, (2R)-2-benzyl-4-chloro-N-(8-fluoro-4-methyl-3-quinolyl)-2-methyl-pent-4-enamide], the inhibition of growth at 20 ppm in the data set on Sclerotinia sclerotiorum was not below 80%. Further, the inhibition of growth at 200 ppm (in data set [1]; in data set [2]; in data set [3]; in the data set on Fusarium culmorum [4]; in [7]) was not below 80% throughout. Moreover, the pest or weed control at 200 ppm (in the data set on Fusarium culmorum [5]; in [6]) was not below 80% each time.
For `C=C(Cl)C[C@](C)(Cc1ccccc1)C(=O)Nc1cc2cccc(F)c2nc1C` [Compound F-44, (2S)-2-benzyl-4-chloro-N-(8-fluoro-2-methyl-3-quinolyl)-2-methyl-pent-4-enamide], the inhibition of growth at 20 ppm in the data set on Sclerotinia sclerotiorum is not below 80%. Besides, the inhibition of growth at 200 ppm (in data set [1]; in [2]; in [3]; in the data set on Fusarium culmorum [4]; in [7]) was not below 80% throughout. Moreover, the pest or weed control at 200 ppm (in the data set with Fusarium culmorum [5]; in [6]) was not below 80% in each case.

As usually defined, the melting point is the temperature of the solid-liquid transition.
